What was measured:
Conditions in all cases: Compound concentration 1.0 uM
[1] = target: Tyrosine-protein kinase Fgr (Homo sapiens) (UniProt P09769); experiment: activity of Fgr(h) at 1.0 µM in the Eurofins Kinase panel
[2] = target: Serine/threonine-protein kinase pim-3 (Homo sapiens) (UniProt Q86V86); experiment: activity of Pim-3(h) at 1.0 µM in the Eurofins Kinase panel
[3] = target: PAS domain-containing serine/threonine-protein kinase (Homo sapiens) (UniProt Q96RG2); experiment: activity of PASK(h) at 1.0 µM in the Eurofins Kinase panel
[4] = target: Dual specificity protein kinase CLK2 (Homo sapiens) (UniProt P49760); experiment: activity of CLK2(h) at 1.0 µM in the Eurofins Kinase panel
[5] = target: Mitogen-activated protein kinase 1 (Homo sapiens) (UniProt P28482); experiment: activity of MAPK1(h) at 1.0 µM in the Eurofins Kinase panel
[6] = target: Serine/threonine-protein kinase DCLK3 (Homo sapiens) (UniProt Q9C098); experiment: activity of DCAMKL3(h) at 1.0 µM in the Eurofins Kinase panel
[7] = target: Rhodopsin kinase GRK7 (Homo sapiens) (UniProt Q8WTQ7); experiment: activity of GRK7(h) at 1.0 µM in the Eurofins Kinase panel
[8] = target: Ribosomal protein S6 kinase beta-1 (Homo sapiens) (UniProt P23443); experiment: activity of p70S6K(h) at 1.0 µM in the Eurofins Kinase panel
[9] = target: Testis-specific serine/threonine-protein kinase 3 (Homo sapiens) (UniProt Q96PN8); experiment: activity of TSSK3(h) at 1.0 µM in the Eurofins Kinase panel
[10] = target: Activin receptor type-1B (Homo sapiens) (UniProt P36896); experiment: activity of ALK4(h) at 1.0 µM in the Eurofins Kinase panel
[11] = target: DNA-dependent protein kinase catalytic subunit (Homo sapiens) (UniProt P78527); experiment: activity of DNA-PK(h) at 1.0 µM in the Eurofins Kinase panel
[12] = target: Rho-associated protein kinase 1 (Homo sapiens) (UniProt Q13464); experiment: activity of ROCK-I(h) at 1.0 µM in the Eurofins Kinase panel
[13] = target: Dual specificity tyrosine-phosphorylation-regulated kinase 3 (Homo sapiens) (UniProt O43781); experiment: activity of DYRK3(h) at 1.0 µM in the Eurofins Kinase panel
[14] = target: Serine/threonine-protein kinase VRK2 (Homo sapiens) (UniProt Q86Y07); experiment: activity of VRK2(h) at 1.0 µM in the Eurofins Kinase panel
[15] = target: Serine/threonine-protein kinase SBK1 (Homo sapiens) (UniProt Q52WX2); experiment: activity of SBK1(h) at 1.0 µM in the Eurofins Kinase panel
[16] = target: CDK6/cyclin D3 (Homo sapiens) (UniProt P30281+Q00534); experiment: activity of CDK6/cyclinD3(h) at 1.0 µM in the Eurofins Kinase panel; format: protein-complex assay
[17] = target: Mitogen-activated protein kinase 10 (Homo sapiens) (UniProt P53779); experiment: activity of JNK3(h) at 1.0 µM in the Eurofins Kinase panel
[18] = target: Tyrosine-protein kinase BTK (Homo sapiens) (UniProt Q06187); experiment: activity of BTK(h) at 1.0 µM in the Eurofins Kinase panel
[19] = target: Phosphorylase b kinase gamma catalytic chain, skeletal muscle/heart isoform (Homo sapiens) (UniProt Q16816); experiment: activity of PhKgamma1(h) at 1.0 µM in the Eurofins Kinase panel
[20] = target: Serine/threonine-protein kinase 24 (Homo sapiens) (UniProt Q9Y6E0); experiment: activity of MST3(h) at 1.0 µM in the Eurofins Kinase panel
[21] = target: Fibroblast growth factor receptor 2 (Homo sapiens) (UniProt P21802); experiment: activity of FGFR2(h) at 1.0 µM in the Eurofins Kinase panel
[22] = target: Tyrosine-protein kinase Mer (Homo sapiens) (UniProt Q12866); experiment: activity of Mer(h) at 1.0 µM in the Eurofins Kinase panel
[23] = target: Interleukin-1 receptor-associated kinase 4 (Homo sapiens) (UniProt Q9NWZ3); experiment: activity of IRAK4(h) at 1.0 µM in the Eurofins Kinase panel
[24] = target: Serine/threonine-protein kinase PAK 2 (Homo sapiens) (UniProt Q13177); experiment: activity of PAK2(h) at 1.0 µM in the Eurofins Kinase panel
[25] = target: Serine/threonine-protein kinase tousled-like 2 (Homo sapiens) (UniProt Q86UE8); experiment: activity of TLK2(h) at 1.0 µM in the Eurofins Kinase panel
[26] = target: SNF-related serine/threonine-protein kinase (Homo sapiens) (UniProt Q9NRH2); experiment: activity of SNRK(h) at 1.0 µM in the Eurofins Kinase panel
[27] = target: Aurora kinase A (Homo sapiens) (UniProt O14965); experiment: activity of Aurora-A(h) at 1.0 µM in the Eurofins Kinase panel
[28] = target: Mitogen-activated protein kinase kinase kinase 9 (Homo sapiens) (UniProt P80192); experiment: activity of MLK1(h) at 1.0 µM in the Eurofins Kinase panel
[29] = target: Serine/threonine-protein kinase Chk1 (Homo sapiens) (UniProt O14757); experiment: activity of CHK1(h) at 1.0 µM in the Eurofins Kinase panel
[30] = target: Serine/threonine-protein kinase WNK1 (Homo sapiens) (UniProt Q9H4A3); experiment: activity of WNK1(h) at 1.0 µM in the Eurofins Kinase panel
[31] = target: Dual specificity tyrosine-phosphorylation-regulated kinase 1A (Homo sapiens) (UniProt Q13627); experiment: activity of DYRK1A(h) at 1.0 µM in the Eurofins Kinase panel
[32] = target: Cyclin-dependent kinase 5/CDK5 activator 1 (Homo sapiens) (UniProt Q00535+Q15078); experiment: activity of CDK5/p25(h) at 1.0 µM in the Eurofins Kinase panel; format: protein-complex assay
[33] = target: Myosin-IIIb (Homo sapiens) (UniProt Q8WXR4); experiment: activity of MYO3B(h) at 1.0 µM in the Eurofins Kinase panel
[34] = target: Tyrosine-protein kinase JAK3 (Homo sapiens) (UniProt P52333); experiment: activity of JAK3(h) at 1.0 µM in the Eurofins Kinase panel
[35] = target: Tyrosine-protein kinase HCK (Homo sapiens) (UniProt P08631); experiment: activity of Hck(h) at 1.0 µM in the Eurofins Kinase panel
[36] = target: Serine/threonine-protein kinase D2 (Homo sapiens) (UniProt Q9BZL6); experiment: activity of PKD2(h) at 1.0 µM in the Eurofins Kinase panel
[37] = target: G protein-coupled receptor kinase 5 (Homo sapiens) (UniProt P34947); experiment: activity of GRK5(h) at 1.0 µM in the Eurofins Kinase panel
[38] = target: Serine/threonine-protein kinase MRCK gamma (Homo sapiens) (UniProt Q6DT37); experiment: activity of MRCKgamma(h) at 1.0 µM in the Eurofins Kinase panel
[39] = target: Serine/threonine-protein kinase OSR1 (Homo sapiens) (UniProt O95747); experiment: activity of OSR1(h) at 1.0 µM in the Eurofins Kinase panel

Chain of Aurora kinase A (Homo sapiens) (O14965 whole entry): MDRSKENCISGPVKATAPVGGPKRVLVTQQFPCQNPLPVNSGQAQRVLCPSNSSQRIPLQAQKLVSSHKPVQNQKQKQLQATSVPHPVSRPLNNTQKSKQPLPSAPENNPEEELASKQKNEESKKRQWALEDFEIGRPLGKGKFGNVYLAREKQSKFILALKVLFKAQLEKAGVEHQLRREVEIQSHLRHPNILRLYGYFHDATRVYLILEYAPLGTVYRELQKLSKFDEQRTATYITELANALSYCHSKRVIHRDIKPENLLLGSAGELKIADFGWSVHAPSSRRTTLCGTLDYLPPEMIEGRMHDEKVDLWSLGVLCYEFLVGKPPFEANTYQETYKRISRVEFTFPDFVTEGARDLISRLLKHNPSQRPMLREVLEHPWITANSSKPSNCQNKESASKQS
Chain of Dual specificity tyrosine-phosphorylation-regulated kinase 3 (Homo sapiens) (O43781 whole entry): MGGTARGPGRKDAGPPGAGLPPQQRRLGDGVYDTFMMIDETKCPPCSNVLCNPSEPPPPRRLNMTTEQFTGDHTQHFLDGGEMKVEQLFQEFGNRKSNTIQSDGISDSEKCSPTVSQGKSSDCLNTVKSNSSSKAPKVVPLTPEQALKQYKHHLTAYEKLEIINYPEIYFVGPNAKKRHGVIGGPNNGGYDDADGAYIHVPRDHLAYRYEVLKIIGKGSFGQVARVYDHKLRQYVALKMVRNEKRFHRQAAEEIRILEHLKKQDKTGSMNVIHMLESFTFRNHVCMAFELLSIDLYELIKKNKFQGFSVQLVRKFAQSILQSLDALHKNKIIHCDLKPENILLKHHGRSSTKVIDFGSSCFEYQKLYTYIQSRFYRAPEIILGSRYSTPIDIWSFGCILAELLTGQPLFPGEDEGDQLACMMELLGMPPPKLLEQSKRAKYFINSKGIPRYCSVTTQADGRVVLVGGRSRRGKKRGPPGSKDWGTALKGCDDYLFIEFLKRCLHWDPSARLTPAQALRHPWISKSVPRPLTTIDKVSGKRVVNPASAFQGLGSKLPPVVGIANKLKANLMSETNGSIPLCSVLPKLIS
Chain of Mitogen-activated protein kinase 10 (Homo sapiens) (P53779 whole entry): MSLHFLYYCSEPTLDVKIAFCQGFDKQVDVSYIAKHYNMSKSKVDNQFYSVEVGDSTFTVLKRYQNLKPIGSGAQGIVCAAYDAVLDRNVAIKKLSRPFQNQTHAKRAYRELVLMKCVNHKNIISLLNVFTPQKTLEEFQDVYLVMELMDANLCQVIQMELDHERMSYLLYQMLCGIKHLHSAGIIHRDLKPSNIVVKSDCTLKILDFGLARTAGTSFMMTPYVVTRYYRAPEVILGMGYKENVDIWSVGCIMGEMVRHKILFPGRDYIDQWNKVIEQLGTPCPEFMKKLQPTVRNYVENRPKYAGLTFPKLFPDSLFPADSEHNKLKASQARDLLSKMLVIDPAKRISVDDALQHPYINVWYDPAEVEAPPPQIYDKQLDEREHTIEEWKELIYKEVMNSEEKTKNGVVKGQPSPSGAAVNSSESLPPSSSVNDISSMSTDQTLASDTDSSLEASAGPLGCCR
Chain of Tyrosine-protein kinase Mer (Homo sapiens) (Q12866 whole entry): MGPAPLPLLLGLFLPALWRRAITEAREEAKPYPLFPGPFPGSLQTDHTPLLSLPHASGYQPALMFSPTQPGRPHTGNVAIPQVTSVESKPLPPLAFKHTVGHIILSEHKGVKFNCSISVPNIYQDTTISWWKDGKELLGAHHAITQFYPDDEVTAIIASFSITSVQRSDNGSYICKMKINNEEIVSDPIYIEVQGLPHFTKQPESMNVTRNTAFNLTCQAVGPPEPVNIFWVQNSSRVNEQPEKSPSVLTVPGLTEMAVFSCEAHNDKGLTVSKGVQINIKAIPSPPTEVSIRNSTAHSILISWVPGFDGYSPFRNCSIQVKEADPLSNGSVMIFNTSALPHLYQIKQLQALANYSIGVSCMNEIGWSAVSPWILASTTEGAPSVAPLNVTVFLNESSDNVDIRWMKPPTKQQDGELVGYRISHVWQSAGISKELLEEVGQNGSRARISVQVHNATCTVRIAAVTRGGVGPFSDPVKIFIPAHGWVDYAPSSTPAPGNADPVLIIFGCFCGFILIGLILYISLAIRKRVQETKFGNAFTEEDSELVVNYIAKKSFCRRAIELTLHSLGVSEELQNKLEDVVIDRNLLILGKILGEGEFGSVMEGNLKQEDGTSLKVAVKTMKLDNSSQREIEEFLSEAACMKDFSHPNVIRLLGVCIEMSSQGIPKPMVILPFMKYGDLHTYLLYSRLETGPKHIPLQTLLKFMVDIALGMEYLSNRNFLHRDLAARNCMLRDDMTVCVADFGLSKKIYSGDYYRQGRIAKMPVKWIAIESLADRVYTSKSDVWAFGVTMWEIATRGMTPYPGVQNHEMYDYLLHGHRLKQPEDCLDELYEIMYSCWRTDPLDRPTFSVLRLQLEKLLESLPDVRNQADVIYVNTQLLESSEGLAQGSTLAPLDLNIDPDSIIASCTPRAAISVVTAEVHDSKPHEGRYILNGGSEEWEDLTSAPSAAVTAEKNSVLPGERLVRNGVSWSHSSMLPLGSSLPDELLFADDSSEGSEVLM
Chain of Ribosomal protein S6 kinase beta-1 (Homo sapiens) (P23443 whole entry, looked up): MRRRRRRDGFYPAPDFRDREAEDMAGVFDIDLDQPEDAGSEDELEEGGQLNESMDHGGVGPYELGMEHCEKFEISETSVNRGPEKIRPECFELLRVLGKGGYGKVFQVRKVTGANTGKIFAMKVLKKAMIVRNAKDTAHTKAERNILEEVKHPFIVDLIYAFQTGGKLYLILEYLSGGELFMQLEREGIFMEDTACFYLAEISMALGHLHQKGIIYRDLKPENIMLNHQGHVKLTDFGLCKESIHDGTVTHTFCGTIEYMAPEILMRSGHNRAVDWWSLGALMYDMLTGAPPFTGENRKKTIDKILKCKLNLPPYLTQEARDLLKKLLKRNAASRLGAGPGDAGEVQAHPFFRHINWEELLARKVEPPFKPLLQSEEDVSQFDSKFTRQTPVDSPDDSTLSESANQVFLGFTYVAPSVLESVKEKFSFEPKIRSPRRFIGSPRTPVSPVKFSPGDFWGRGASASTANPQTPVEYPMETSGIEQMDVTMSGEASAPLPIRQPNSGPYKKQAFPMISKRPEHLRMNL
Chain of Activin receptor type-1B (Homo sapiens) (P36896 whole entry): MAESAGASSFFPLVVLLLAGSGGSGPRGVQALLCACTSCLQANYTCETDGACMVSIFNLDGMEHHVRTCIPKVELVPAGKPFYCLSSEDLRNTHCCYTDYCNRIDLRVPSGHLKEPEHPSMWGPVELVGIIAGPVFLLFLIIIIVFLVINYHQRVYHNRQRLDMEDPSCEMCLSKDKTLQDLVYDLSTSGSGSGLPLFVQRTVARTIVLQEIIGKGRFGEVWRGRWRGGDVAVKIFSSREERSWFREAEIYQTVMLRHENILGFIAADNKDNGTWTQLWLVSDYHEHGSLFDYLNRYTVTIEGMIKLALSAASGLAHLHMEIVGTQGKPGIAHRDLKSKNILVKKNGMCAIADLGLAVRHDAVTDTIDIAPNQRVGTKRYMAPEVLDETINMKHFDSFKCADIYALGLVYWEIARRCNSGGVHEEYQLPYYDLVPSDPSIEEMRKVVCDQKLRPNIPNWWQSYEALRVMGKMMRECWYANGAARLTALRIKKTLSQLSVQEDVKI
Chain of Serine/threonine-protein kinase tousled-like 2 (Homo sapiens) (Q86UE8 whole entry, looked up): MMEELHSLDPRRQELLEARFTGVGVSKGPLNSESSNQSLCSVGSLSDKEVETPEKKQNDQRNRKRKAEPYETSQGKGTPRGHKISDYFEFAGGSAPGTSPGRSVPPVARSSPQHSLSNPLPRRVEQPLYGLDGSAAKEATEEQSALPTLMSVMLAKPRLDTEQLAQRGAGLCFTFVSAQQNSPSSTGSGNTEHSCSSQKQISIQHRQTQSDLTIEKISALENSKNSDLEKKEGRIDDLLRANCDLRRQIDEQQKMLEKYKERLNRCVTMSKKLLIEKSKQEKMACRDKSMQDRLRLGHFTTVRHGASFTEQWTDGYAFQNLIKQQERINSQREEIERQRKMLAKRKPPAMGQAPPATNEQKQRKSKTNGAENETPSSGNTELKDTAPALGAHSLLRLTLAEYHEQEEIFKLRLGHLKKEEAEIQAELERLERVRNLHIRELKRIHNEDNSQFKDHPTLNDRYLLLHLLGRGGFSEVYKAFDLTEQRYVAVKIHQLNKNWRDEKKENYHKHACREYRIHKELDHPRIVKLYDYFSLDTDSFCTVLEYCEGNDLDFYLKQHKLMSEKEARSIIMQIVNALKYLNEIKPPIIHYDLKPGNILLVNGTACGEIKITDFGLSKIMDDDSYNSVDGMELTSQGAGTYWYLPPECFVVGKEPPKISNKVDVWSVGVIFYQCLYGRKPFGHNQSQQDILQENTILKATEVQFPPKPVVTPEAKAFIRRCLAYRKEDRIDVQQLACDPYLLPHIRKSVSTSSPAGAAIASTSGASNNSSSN
Chain of Cyclin-dependent kinase 5/CDK5 activator 1 (Homo sapiens) (Q00535 whole entry): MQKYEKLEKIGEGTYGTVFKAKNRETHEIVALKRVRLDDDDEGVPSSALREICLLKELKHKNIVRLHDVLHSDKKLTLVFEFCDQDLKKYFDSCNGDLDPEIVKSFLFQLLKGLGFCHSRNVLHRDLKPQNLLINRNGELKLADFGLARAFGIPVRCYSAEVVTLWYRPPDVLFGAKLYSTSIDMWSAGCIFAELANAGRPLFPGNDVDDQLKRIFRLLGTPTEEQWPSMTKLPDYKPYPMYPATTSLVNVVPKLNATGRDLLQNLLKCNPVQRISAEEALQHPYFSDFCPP
Chain of Cyclin-dependent kinase 5/CDK5 activator 1 (Homo sapiens) (Q15078 99-307 partner limits assumed): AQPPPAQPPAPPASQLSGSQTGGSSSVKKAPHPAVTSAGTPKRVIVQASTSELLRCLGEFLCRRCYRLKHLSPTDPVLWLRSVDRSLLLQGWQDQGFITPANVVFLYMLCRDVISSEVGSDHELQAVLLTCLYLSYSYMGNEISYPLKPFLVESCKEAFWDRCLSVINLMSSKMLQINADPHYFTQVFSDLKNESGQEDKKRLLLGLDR

Cc1cc2c(-c3ccc(NC(=O)[C@H](N)CC(C)(C)C)cc3C)ccnc2[nH]1
activity [1]: 97%
activity [2]: 103%
activity [3]: 72%
activity [4]: 106%
activity [5]: 95%
activity [6]: 86%
activity [7]: 98%
activity [8]: 93%
activity [9]: 96%
activity [10]: 94%
activity [11]: 107%
activity [12]: 96%
activity [13]: 99%
activity [14]: 100%
activity [15]: 97%
activity [16]: 90%
activity [17]: 88%
activity [18]: 122%
activity [19]: 101%
activity [20]: 85%
activity [21]: 89%
activity [22]: 105%
activity [23]: 90%
activity [24]: 95%
activity [25]: 92%
activity [26]: 111%
activity [27]: 97%
activity [28]: 103%
activity [29]: 108%
activity [30]: 109%
activity [31]: 112%
activity [32]: 72%
activity [33]: 79%
activity [34]: 106%
activity [35]: 99%
activity [36]: 95%
activity [37]: 97%
activity [38]: 98%
activity [39]: 80%
